Source: ChEMBL document CHEMBL4765493, “Berberine Directly Targets the NEK7 Protein to Block the NEK7-NLRP3 Interaction and Exert Anti-inflammatory Activity” (J Med Chem, 2021)
Activity calls are given as the source filed them. The rule behind the calls is not given here.

What was measured:
Mus musculus [1] = experiment: Antiinflammatory activity in NEK7 wild type C57BL/6 mouse model assessed as reduction in inflammatory infiltration in liver at 5 mg/kg, ip dosed three times every 12 hrs followed by LPS challenge by H and E staining; assay type: functional, organism-based
[2] = Inhibition of LPS + nigericin-induced IL-1beta secretion in PMA-differentiated human THP-1 cells incubated for 1 to 24 hrs by Immunoblot analysis; assay type: functional, cell-based
HEK293 [3] = experiment: Inhibition of NEK7-NLRP3 interaction (unknown origin) expressed in HEK293 cells incubated for 24 hrs by Co-IP assay; assay type: cell-based; details: Homo sapiens
[4] = Toxicity in mouse BMDM cells assessed as induction of apoptosis by measuring cleaved caspase-3 levels up to 40 uM incubated for 24 hrs by immunoblot analysis; assay type: cell-based
THP-1 [5] = experiment: Inhibition of LPS + nigericin-induced pro-IL-beta expression in human THP-1 cells at 2.5 to 20 uM pre-treatment for 4 hrs before LPS + nigericin by immunoblot analysis; assay type: functional, cell-based; details: dose 2.5-20 µM
THP-1 [6] = experiment: Inhibition of LPS + nigericin-induced IL-1beta secretion in human THP-1 cells pre-treatment for 4 hrs before LPS + nigericin by immunoblot analysis; assay type: functional, cell-based
BMDM [7] = experiment: Inhibition of LPS + nigericin-induced IL-1beta secretion in mouse BMDM at 2.5 to 20 uM pre-treatment for 4 hrs before LPS + nigericin by immunoblot analysis; assay type: functional, tissue-based; details: dose 2.5-20 µM
[8] = molecular target: T1, Serine/threonine-protein kinase Nek7 (Homo sapiens, UniProt Q8TDX7); experiment: Binding affinity to NEK7 in PMA-differentiated human THP-1 cells at 100 uM incubated for 8 hrs by streptavidin-bead enrichment and immunoblot assay; assay type: cell-based
Target sequence in this assay (Q8TDX7 whole entry, looked up): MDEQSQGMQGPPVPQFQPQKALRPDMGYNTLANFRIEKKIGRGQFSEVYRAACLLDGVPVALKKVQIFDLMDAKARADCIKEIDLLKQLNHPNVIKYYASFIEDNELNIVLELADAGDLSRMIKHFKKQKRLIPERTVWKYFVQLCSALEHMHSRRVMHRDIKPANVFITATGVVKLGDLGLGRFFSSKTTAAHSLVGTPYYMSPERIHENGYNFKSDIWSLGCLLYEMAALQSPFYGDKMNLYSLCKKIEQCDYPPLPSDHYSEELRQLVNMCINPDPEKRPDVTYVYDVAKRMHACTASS

BMDM [9] = experiment: Inhibition of LPS + nigericin-induced NLRP3 expression in mouse BMDM at 2.5 to 20 uM pre-treatment for 4 hrs before LPS + nigericin by immunoblot analysis; assay type: functional, tissue-based; details: dose 2.5-20 µM
BMDM [10] = experiment: Inhibition of LPS + nigericin-induced caspase-1 activation in mouse BMDM at 2.5 to 20 uM pre-treatment for 4 hrs before LPS + nigericin by immunoblot analysis; assay type: functional, tissue-based; details: dose 2.5-20 µM
Mus musculus [11] = experiment: Antiinflammatory activity in NEK7 wild type C57BL/6 mouse model assessed as reduction in lesion in lung in at 5 mg/kg, ip dosed three times every 12 hrs followed by LPS challenge by H and E staining; assay type: functional, organism-based
Mus musculus [12] = experiment: Antiinflammatory activity in NEK7 wild type C57BL/6 mouse model assessed as reduction in lesion in spleen in at 5 mg/kg, ip dosed three times every 12 hrs followed by LPS challenge by H and E staining; assay type: functional, organism-based
THP-1 [13] = experiment: Inhibition of NEK7-NLRP3 interaction in human THP-1 cells incubated for 24 hrs by Co-IP assay; assay type: cell-based
Mus musculus [14] = experiment: Antiinflammatory activity in NEK7 wild type C57BL/6 mouse model assessed as reduction in lesion in kidney in at 5 mg/kg, ip dosed three times every 12 hrs followed by LPS challenge by H and E staining; assay type: functional, organism-based
HEK293 [15] = experiment: Inhibition of NEK7 R121A mutant-NLRP3 interaction (unknown origin) expressed in HEK293 cells at 10 uM incubated for 24 hrs by Co-IP assay; assay type: cell-based; details: Homo sapiens
Mus musculus [16] = experiment: Inhibition of serum IL-1beta production in NEK7 knockdown C57BL/6 mouse model at 5 mg/kg, ip dosed three times every 12 hrs followed by LPS challenge by ELISA; assay type: functional, organism-based
BMDM [17] = experiment: Inhibition of LPS + nigericin-induced pro-IL-1beta expression in mouse BMDM at 2.5 to 20 uM pre-treatment for 4 hrs before LPS + nigericin by immunoblot analysis; assay type: functional, tissue-based; details: dose 2.5-20 µM
HEK293 [18] = experiment: Inhibition of NEK7-NLRP3 interaction (unknown origin) expressed in HEK293 cells at 10 uM incubated for 24 hrs by Co-IP assay; assay type: cell-based; details: Homo sapiens
[19] = molecular target: T1, Serine/threonine-protein kinase Nek7; experiment: Binding affinity to NEK7 in PMA-differentiated human THP-1 cells assessed as reduction in Cy3-labeled target proteins at 100 uM incubated for 8 hrs using probe-16 by fluorescent gel imaging analysis; assay type: cell-based
Target sequence in this assay (Q8TDX7 whole entry, looked up): as above

[20] = Toxicity in mouse BMDM cells assessed as induction of apoptosis by measuring cleaved caspase-7 levels up to 40 uM incubated for 24 hrs by immunoblot analysis; assay type: cell-based
THP-1 [21] = experiment: Inhibition of LPS + nigericin-induced ASC-pyroptosome formation in human THP-1 cells at 5 to 10 uM uM pre-treatment for 4 hrs before LPS + nigericin addition by immunofluorescence analysis; assay type: functional, cell-based; details: dose 5-10 µM
THP-1 [22] = experiment: Inhibition of LPS + nigericin-induced caspase-1 activation in human THP-1 cells pre-treatment for 4 hrs before LPS + nigericin by immunoblot analysis; assay type: functional, cell-based
[23] = molecular target: T1, Serine/threonine-protein kinase Nek7; experiment: Binding affinity to purified recombinant human NEK7 by SPR analysis
Target sequence in this assay (Q8TDX7 whole entry): as the sequence (Q8TDX7 whole entry, looked up) above

[24] = Toxicity in mouse BMDM cells assessed as induction of apoptosis by measuring cleaved caspase-9 levels up to 40 uM incubated for 24 hrs by immunoblot analysis; assay type: cell-based
THP-1 [25] = experiment: Inhibition of LPS + nigericin-induced NLRP3 expression in human THP-1 cells at 2.5 to 20 uM pre-treatment for 4 hrs before LPS + nigericin by immunoblot analysis; assay type: functional, cell-based; details: dose 2.5-20 µM
[26] = Inhibition of LPS + nigericin-induced IL-1beta secretion in PMA-differentiated human THP-1 cells at 20 uM incubated for 24 hrs by ELISA; assay type: functional
THP-1 [27] = experiment: Inhibition of AIM2-induced IL-1beta activation in human THP-1 cells at 10 uM pre-treatment for 2 hrs before AIM2 addition; assay type: functional, cell-based
[28] = Toxicity in mouse BMDM cells assessed as induction of cell death up to 40 uM incubated for 24 hrs by MTS assay; assay type: cell-based
[29] = molecular target: T1, Serine/threonine-protein kinase Nek7; experiment: Inhibition of purified recombinant human NEK7 incubated for 15 mins before ATP and substrate addition and further incubated for 40 mins by ADPGlo kinase assay
Target sequence in this assay (Q8TDX7 whole entry): as the sequence (Q8TDX7 whole entry, looked up) above

Mus musculus [30] = experiment: Antiinflammatory activity in NEK7 wild type C57BL/6 mouse model assessed as reduction in lesion in heart in at 5 mg/kg, ip dosed three times every 12 hrs followed by LPS challenge by H and E staining; assay type: functional, organism-based
Mus musculus [31] = experiment: Inhibition of serum IL-1beta production in NEK7 wild type C57BL/6 mouse model at 5 mg/kg, ip dosed three times every 12 hrs followed by LPS challenge by ELISA; assay type: functional, organism-based

**Q.** What does the source list for COc1ccc2cc3[n+](cc2c1OC)CCc1cc2c(cc1-3)OCO2.[Cl-] [BERBERINE CHLORIDE]?
**A.** Activity (Mus musculus [1]): Active; IC50 [2]: 5.1 µM; inhibition (HEK293 [3]): Dose-dependent effect; Activity [4]: Non-Toxic; inhibition (THP-1 [5]): inactive; inhibition (THP-1 [6]): Active; inhibition (BMDM [7]): Active; Activity [8]: Active; inhibition (BMDM [9]): inactive; inhibition (BMDM [10]): Active; Activity (Mus musculus [11]): Active; Activity (Mus musculus [12]): Active; inhibition (THP-1 [13]): Dose-dependent effect; Activity (Mus musculus [14]): Active; inhibition (HEK293 [15]): inactive; Activity (Mus musculus [16]): inactive; inhibition (BMDM [17]): inactive; inhibition (HEK293 [18]): Active; Activity [19]: Active; Activity [20]: Non-Toxic; inhibition (THP-1 [21]): Active; inhibition (THP-1 [22]): Active; Kd [23]: 15.6 µM; Activity [24]: Non-Toxic; inhibition (THP-1 [25]): inactive; inhibition at 20 µM [26]: 72%; inhibition (THP-1 [27]): inactive; Activity [28]: Non-Toxic; IC50 [29]: 4.2 µM; Activity (Mus musculus [30]): Active; Activity (Mus musculus [31]): Active
